Active and inactive are the calls of the source. The rule behind the calls is not given here.
System: CCRIS mutagenicity, Ames/micronucleus/aberration tests
Assay: CCRIS mutagenicity studies
[1] = Test System: AMES SALMONELLA TYPHIMURIUM, Strain/Indicator: TA100, Metabolic Activation: NONE, Method: PREINCUBATION
[2] = Test System: AMES SALMONELLA TYPHIMURIUM, Strain/Indicator: TA98, Metabolic Activation: NONE, Method: STANDARD PLATE

SMILES: NCCS
- mutagenic call (End Point: IN VIVO MICRONUCLEUS, Test System: BONE MARROW POLYCHROMATIC ERYTHROCYTES, Species: MOUSE, Strain/Sex: SWISS/FEMALE, Route: IP): inactive; negative
- mutagenic call [1]: inactive; negative
- mutagenic call (Test System: Ames Salmonella typhimurium, Strain/Indicator: TA98, Metabolic Activation: None, Method: Preincubation): inactive; negative
- mutagenic call (Test System: Ames Salmonella typhimurium, Strain/Indicator: TA98, Metabolic Activation: Rat, Liver, S9, Sodium phenobarbital and 5,6-benzoflavone (10%), Method: Preincubation): inactive; negative
- mutagenic call (Test System: Ames Salmonella typhimurium, Strain/Indicator: TA100, Metabolic Activation: None, Method: Preincubation): inactive; negative
- mutagenic call (Test System: Ames Salmonella typhimurium, Strain/Indicator: TA100, Metabolic Activation: Rat, Liver, S9, Sodium phenobarbital and 5,6-benzoflavone (10%), Method: Preincubation): inactive; negative
- mutagenic call (Test System: Ames Salmonella typhimurium, Strain/Indicator: TA1535, Metabolic Activation: None, Method: Preincubation): inactive; negative
- mutagenic call (Test System: Ames Salmonella typhimurium, Strain/Indicator: TA1535, Metabolic Activation: Rat, Liver, S9, Sodium phenobarbital and 5,6-benzoflavone (10%), Method: Preincubation): inactive; negative
- mutagenic call (Test System: Ames Salmonella typhimurium, Strain/Indicator: TA1537, Metabolic Activation: None, Method: Preincubation): inactive; negative
- mutagenic call (Test System: Ames Salmonella typhimurium, Strain/Indicator: TA1537, Metabolic Activation: Rat, Liver, S9, Sodium phenobarbital and 5,6-benzoflavone (10%), Method: Preincubation): inactive; negative
- mutagenic call (Test System: E. coli, Strain/Indicator: WP2uvrA/pKM101, Metabolic Activation: Rat, Liver, S9, Sodium phenobarbital and 5,6-benzoflavone (10%), Method: Preincubation): inactive; negative

SMILES: O=c1c2c(O)cc(O)cc2oc2c(O)ccc(O[C@@H]3O[C@H](CO)[C@@H](O)[C@H](O)[C@H]3O)c12
- mutagenic call (Test System: AMES SALMONELLA TYPHIMURIUM, Strain/Indicator: TA97, Metabolic Activation: RAT, LIVER, S-9, PHENOBARBITAL AND 5,6-BENZOFLAVONE, BETA-GLUCOSIDASE, Method: PREINCUBATION): active; positive
- mutagenic call (Test System: AMES SALMONELLA TYPHIMURIUM, Strain/Indicator: TA98, Metabolic Activation: RAT, LIVER, S-9, PHENOBARBITAL AND 5,6-BENZOFLAVONE, BETA-GLUCOSIDASE, Method: PREINCUBATION): inactive; negative
- mutagenic call (Test System: AMES SALMONELLA TYPHIMURIUM, Strain/Indicator: TA100, Metabolic Activation: RAT, LIVER, S-9, PHENOBARBITAL AND 5,6-BENZOFLAVONE, BETA-GLUCOSIDASE, Method: PREINCUBATION): active; positive
- mutagenic call (Test System: AMES SALMONELLA TYPHIMURIUM, Strain/Indicator: TA2637, Metabolic Activation: RAT, LIVER, S-9, PHENOBARBITAL AND 5,6-BENZOFLAVONE, BETA-GLUCOSIDASE, Method: PREINCUBATION): active; positive

SMILES: O=C1Cc2cc3ccc([N+](=O)[O-])cc3cc2[C@H](O)[C@H]1O
- mutagenic call [2]: inactive; negative

SMILES: CN(N=O)C(=O)Oc1cccc2ccccc12
- mutagenic call (End Point: IN VITRO CHROMOSOMAL ABERRATIONS, Test System: CHINESE HAMSTER V79-E CELLS, Metabolic Activation: NONE): active; positive
- mutagenic call (Test System: E. COLI WP2, Strain/Indicator: WP2, Metabolic Activation: NONE, Method: STANDARD PLATE): active; positive

SMILES: OC1Cc2cc3cccc4ccc5ccc1c2c5c43 (stereo not given)
- mutagenic call (Test System: AMES SALMONELLA TYPHIMURIUM, Strain/Indicator: TA98, Metabolic Activation: HUMAN, LIVER, CYTOSOL, PAPS, Method: PREINCUBATION): active; positive

SMILES: CC(=O)OC(OC(C)=O)c1ccc([N+](=O)[O-])o1
- mutagenic call (Test System: AMES SALMONELLA TYPHIMURIUM, Strain/Indicator: TA98(1,8-DNP6), Metabolic Activation: NONE, Method: STANDARD PLATE): active; positive
- mutagenic call (Test System: AMES SALMONELLA TYPHIMURIUM, Strain/Indicator: TA98(1,8-DNP6), Metabolic Activation: RAT, LIVER, S-9, 3-METHYLCHOLANTHRENE, Method: STANDARD PLATE): active; positive
- mutagenic call (Test System: AMES SALMONELLA TYPHIMURIUM, Strain/Indicator: TA98(NR), Metabolic Activation: NONE, Method: STANDARD PLATE): active; positive
- mutagenic call (Test System: AMES SALMONELLA TYPHIMURIUM, Strain/Indicator: TA98(NR), Metabolic Activation: RAT, LIVER, S-9, 3-METHYLCHOLANTHRENE, Method: STANDARD PLATE): active; positive
- mutagenic call [2]: active; positive
- mutagenic call (Test System: AMES SALMONELLA TYPHIMURIUM, Strain/Indicator: TA98, Metabolic Activation: RAT, LIVER, S-9, 3-METHYLCHOLANTHRENE, Method: STANDARD PLATE): active; positive
- mutagenic call (Test System: E. COLI, Strain/Indicator: WP2 UVRA, Metabolic Activation: NONE, Method: SPOT): active; positive

SMILES: [O]=[Ce]=[O]
- mutagenic call (Test System: AMES SALMONELLA TYPHIMURIUM, Strain/Indicator: TA98, Metabolic Activation: NONE, Method: PREINCUBATION): inactive; negative
- mutagenic call (Test System: AMES SALMONELLA TYPHIMURIUM, Strain/Indicator: TA98, Metabolic Activation: RAT, LIVER, S-9, KC 500, Method: PREINCUBATION): inactive; negative
- mutagenic call [1]: inactive; negative
- mutagenic call (Test System: AMES SALMONELLA TYPHIMURIUM, Strain/Indicator: TA100, Metabolic Activation: RAT, LIVER, S-9, KC 500, Method: PREINCUBATION): inactive; negative
- mutagenic call (Test System: AMES SALMONELLA TYPHIMURIUM, Strain/Indicator: TA1535, Metabolic Activation: NONE, Method: PREINCUBATION): inactive; negative
- mutagenic call (Test System: AMES SALMONELLA TYPHIMURIUM, Strain/Indicator: TA1535, Metabolic Activation: RAT, LIVER, S-9, KC 500, Method: PREINCUBATION): inactive; negative
- mutagenic call (Test System: AMES SALMONELLA TYPHIMURIUM, Strain/Indicator: TA1537, Metabolic Activation: NONE, Method: PREINCUBATION): inactive; negative
- mutagenic call (Test System: AMES SALMONELLA TYPHIMURIUM, Strain/Indicator: TA1537, Metabolic Activation: RAT, LIVER, S-9, KC 500, Method: PREINCUBATION): inactive; negative
- mutagenic call (Test System: AMES SALMONELLA TYPHIMURIUM, Strain/Indicator: TA1538, Metabolic Activation: NONE, Method: PREINCUBATION): inactive; negative
- mutagenic call (Test System: AMES SALMONELLA TYPHIMURIUM, Strain/Indicator: TA1538, Metabolic Activation: RAT, LIVER, S-9, KC 500, Method: PREINCUBATION): inactive; negative
- mutagenic call (Test System: E. COLI, Strain/Indicator: WP2 UVRA, Metabolic Activation: NONE, Method: PREINCUBATION): inactive; negative
- mutagenic call (Test System: E. COLI, Strain/Indicator: WP2 UVRA, Metabolic Activation: RAT, LIVER, S-9, KC 500, Method: PREINCUBATION): inactive; negative

SMILES: CNC(=O)Oc1cccc2c1OC(C)(C)O2
- mutagenic call (End Point: IN VIVO MICRONUCLEUS, Test System: BONE MARROW POLYCHROMATIC ERYTHROCYTES, Species: RABBIT, Strain/Sex: HYBRID HYLA/MALE, FEMALE, Route: ORAL (GAVAGE)): inactive; negative
- mutagenic call (End Point: In vitro Chromosomal aberrations, Test System: Human lymphocytes, Metabolic Activation: Activation by unspecified source): active; positive
- mutagenic call (End Point: In vitro Chromosomal aberrations, Test System: Human lymphocytes, Metabolic Activation: None): inactive; negative

SMILES: CC(C)CN(C(=O)CCCl)c1snc2ccccc12
- mutagenic call [2]: inactive; negative
- mutagenic call (Test System: AMES SALMONELLA TYPHIMURIUM, Strain/Indicator: TA98, Metabolic Activation: S-9, Method: STANDARD PLATE): inactive; negative
- mutagenic call (Test System: AMES SALMONELLA TYPHIMURIUM, Strain/Indicator: TA100, Metabolic Activation: NONE, Method: STANDARD PLATE): inactive; negative
- mutagenic call (Test System: AMES SALMONELLA TYPHIMURIUM, Strain/Indicator: TA100, Metabolic Activation: S-9, Method: STANDARD PLATE): inactive; negative
- mutagenic call (Test System: AMES SALMONELLA TYPHIMURIUM, Strain/Indicator: TA1535, Metabolic Activation: NONE, Method: STANDARD PLATE): inactive; negative
- mutagenic call (Test System: AMES SALMONELLA TYPHIMURIUM, Strain/Indicator: TA1535, Metabolic Activation: S-9, Method: STANDARD PLATE): inactive; negative
- mutagenic call (Test System: AMES SALMONELLA TYPHIMURIUM, Strain/Indicator: TA1537, Metabolic Activation: NONE, Method: STANDARD PLATE): inactive; negative
- mutagenic call (Test System: AMES SALMONELLA TYPHIMURIUM, Strain/Indicator: TA1537, Metabolic Activation: S-9, Method: STANDARD PLATE): inactive; negative

SMILES: C[C@@H]1C[C@@H]2c3cccc4[nH]cc(c34)C[C@H]2N(C)C1
- mutagenic call (Test System: AMES SALMONELLA TYPHIMURIUM, Strain/Indicator: TA100, Metabolic Activation: RAT, LIVER, S-9, AROCLOR 1254, Method: STANDARD PLATE): active; positive
